Measured values published in US8309577B2, “Quinuclidine compounds as α-7 nicotinic acetylcholine receptor ligands” (Bristol-Myers Squibb Company, priority 2008, dated 2012).

Target: T1, α-7 nicotinic acetylcholine receptor channel expressed in HEK 293 cells (Rattus norvegicus, UniProt Q05941)
T1 construct: expressed in transfected cells
Experiment: Ca2+-sensitive fluorescence-based FLIPR assay, α7 nicotinic ACh receptor channel function (agonist)
Assay type: cell-based
Conditions: HEK 293 cells, agonist Ca2+ flux
In short: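 Potency and efficacy derived from kinetic FLIPR Ca²⁺-flux fluorescence, recorded 3 min after compound addition in Hanks buffer following a 10 s baseline.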

[1] = FLIPR α7 activity rating (EC50, nM), Table 1
[2] = FLIPR α7 activity rating (EC50, nM), Table Ib

T1 sequence (Q05941 23-502): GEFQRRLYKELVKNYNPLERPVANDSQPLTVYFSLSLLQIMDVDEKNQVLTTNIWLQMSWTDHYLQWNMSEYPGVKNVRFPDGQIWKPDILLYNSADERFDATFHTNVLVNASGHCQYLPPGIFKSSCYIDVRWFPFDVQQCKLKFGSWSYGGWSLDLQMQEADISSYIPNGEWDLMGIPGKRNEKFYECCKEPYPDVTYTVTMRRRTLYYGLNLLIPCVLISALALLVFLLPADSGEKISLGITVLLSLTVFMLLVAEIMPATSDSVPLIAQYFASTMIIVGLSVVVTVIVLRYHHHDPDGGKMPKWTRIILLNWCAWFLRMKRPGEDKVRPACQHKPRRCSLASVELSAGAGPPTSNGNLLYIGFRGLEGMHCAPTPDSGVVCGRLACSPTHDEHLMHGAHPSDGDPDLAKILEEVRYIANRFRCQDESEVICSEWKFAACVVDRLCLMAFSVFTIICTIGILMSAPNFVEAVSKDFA

For `Clc1ccc2cnc(NC3=NC[C@@]4(CN5CCC4CC5)O3)cc2c1Cl` [Example 281, (R)—N-(5,6-Dichloroisoquinolin-3-yl)-4H-1′-azaspiro[oxazole-5,3′-bicyclo[2.2.2]octan]-2-amine], the EC50 [1] was less than 100 nM.
`Clc1ccnc(NC2=NC[C@@]3(CN4CCC3CC4)O2)c1Cl` [Example 282, (R)—N-(3,4-Dichloropyridin-2-yl)-4H-1′-azaspiro[oxazole-5,3′-bicyclo[2.2.2]octan]-2-amine] was tested, and the EC50 [1] was 100 to 1000 nM.
In the case of `Clc1cccnc1NC1=NC[C@@]2(CN3CCC2CC3)O1` [Example 283, (R)—N-(3-Chloropyridin-2-yl)-4H-1′-azaspiro[oxazole-5,3′-bicyclo[2.2.2]octan]-2-amine], the EC50 [1] is reported as 100 to 1000 nM.
Work on `Fc1cc(Cl)cnc1NC1=NC[C@@]2(CN3CCC2CC3)O1` [Example 284, (R)—N-(5-Chloro-3-fluoropyridin-2-yl)-4H-1′-azaspiro[oxazole-5,3′-bicyclo[2.2.2]octan]-2-amine] yielded an EC50 [1] of less than 100 nM.
In the case of `Clc1cccc(NC2=NC[C@@]3(CN4CCC3CC4)O2)n1` [Example 285, (R)—N-(6-Chloropyridin-2-yl)-4H-1′-azaspiro[oxazole-5,3′-bicyclo[2.2.2]octan]-2-amine], the EC50 [1] is reported as 100 to 1000 nM.
In the case of `Clc1cc(Cl)nc(NC2=NC[C@@]3(CN4CCC3CC4)O2)c1` [Example 286, (R)—N-(4,6-Dichloropyridin-2-yl)-4H-1′-azaspiro[oxazole-5,3′-bicyclo[2.2.2]octan]-2-amine], the EC50 [1] is reported as 100 to 1000 nM.
Compound `COc1ncccc1-c1ccnc(NC2=NC[C@@]3(CN4CCC3CC4)O2)c1` [Example 287, (R)—N-(2-methoxy-3,4′-bipyridin-2′-yl)-4H-1′-azaspiro[oxazole-5,3′-bicyclo[2.2.2]octan]-2-amine] has an EC50 [1] of 100 to 1000 nM.
With `c1ccc2oc(NC3=NC[C@@]4(CN5CCC4CC5)O3)nc2c1` [Example 288, (R)—N-(Benzo[d]oxazol-2-yl)-4H-1′-azaspiro[oxazole-5,3′-bicyclo[2.2.2]octan]-2-amine] the EC50 [1] was less than 100 nM.
Compound `Clc1ccc2oc(NC3=NC[C@@]4(CN5CCC4CC5)O3)nc2c1` [Example 289, (R)—N-(5-Chlorobenzo[d]oxazol-2-yl)-4H-1′-azaspiro[oxazole-5,3′-bicyclo[2.2.2]octan]-2-amine] has an EC50 [1] of less than 100 nM.
`c1cnc2nc(NC3=NC[C@@]4(CN5CCC4CC5)O3)oc2c1` [Example 290, (R)—N-(Oxazolo[4,5-b]pyridin-2-yl)-4H-1′-azaspiro[oxazole-5,3′-bicyclo[2.2.2]octan]-2-amine] was tested, and the EC50 [1] was less than 100 nM.
`Cc1ccc2cnc(NC3=NC[C@@]4(CN5CCC4CC5)O3)cc2c1` [Example 291, (R)—N-(6-Methylisoquinolin-3-yl)-4H-1′-azaspiro[oxazole-5,3′-bicyclo[2.2.2]octan]-2-amine] gave an EC50 [1] of less than 100 nM.
For `Brc1ccc2cnc(NC3=NC[C@@]4(CN5CCC4CC5)O3)cc2c1` [Example 292, (R)—N-(6-Bromoisoquinolin-3-yl)-4H-1′-azaspiro[oxazole-5,3′-bicyclo[2.2.2]octan]-2-amine], the EC50 [1] was less than 100 nM.
`Brc1ccc2cc(NC3=NC[C@@]4(CN5CCC4CC5)O3)ncc2c1` [Example 293, (R)—N-(7-Bromoisoquinolin-3-yl)-4H-1′-azaspiro[oxazole-5,3′-bicyclo[2.2.2]octan]-2-amine] gave an EC50 [1] of 100 to 1000 nM.
Compound `Brc1cccc2cnc(NC3=NC[C@@]4(CN5CCC4CC5)O3)cc12` [Example 294, (R)—N-(5-bromoisoquinolin-3-yl)-4H-1′-azaspiro[oxazole-5,3′-bicyclo[2.2.2]octan]-2-amine] has an EC50 [1] of less than 100 nM.
`Cc1cc(C)c2cnc(NC3=NC[C@@]4(CN5CCC4CC5)O3)cc2c1` [Example 295, (2R)—N-(6,8-Dimethyl-3-isoquinolinyl)-4′H-spiro[4-azabicyclo[2.2.2]octane-2,5′-[1,3]oxazol]-2′-amine] showed an EC50 [1] of 100 to 1000 nM.
`c1cncc(-c2ccnc(NC3=NC[C@@]4(CN5CCC4CC5)O3)c2)c1` [Example 296, (R)—N-(3,4′-Bipyridin-2′-yl)-4H-1′-azaspiro[oxazole-5,3′-bicyclo[2.2.2]octan]-2-amine] showed an EC50 [2] of less than 100 nM.
`Clc1cncc(-c2ccnc(NC3=NC[C@@]4(CN5CCC4CC5)O3)c2)c1` [Example 297, (R)—N-(5-Chloro-3,4′-bipyridin-2′-yl)-4H-1′-azaspiro[oxazole-5,3′-bicyclo[2.2.2]octan]-2-amine] was tested, and the EC50 (FLIPR α7 (EC50, nM), Table Ib) was 35 nM and the EC50 [2] was less than 100 nM.
With `COc1ccc(-c2ccnc(NC3=NC[C@@]4(CN5CCC4CC5)O3)c2)cn1` [Example 298, (R)—N-(6-Methoxy-3,4′-bipyridin-2′-yl)-4H-1′-azaspiro[oxazole-5,3′-bicyclo[2.2.2]octan]-2-amine] the EC50 (FLIPR α7 (EC50, nM), Table Ib) was 25 nM and the EC50 [2] was less than 100 nM.
In the case of `Fc1ccc(-c2ccnc(NC3=NC[C@@]4(CN5CCC4CC5)O3)c2)cn1` [Example 299, (R)—N-(6-Fluoro-3,4′-bipyridin-2′-yl)-4H-1′-azaspiro[oxazole-5,3′-bicyclo[2.2.2]octan]-2-amine], the EC50 [2] is reported as less than 100 nM.
`Fc1ccc(-c2ccnc(NC3=NC[C@@]4(CN5CCC4CC5)O3)c2)cc1Cl` [Example 300, (R)—N-(4-(3-Chloro-4-fluoro-phenyl)pyridin-2-yl)-4H-1′-azaspiro[oxazole-5,3′-bicyclo[2.2.2]octan]-2-amine] gave an EC50 [2] of less than 100 nM.
Compound `Cc1cccc(-c2ccnc(NC3=NC[C@@]4(CN5CCC4CC5)O3)c2)c1` [Example 301, (R)—N-(4-m-Tolylpyridin-2-yl)-4H-1′-azaspiro[oxazole-5,3′-bicyclo[2.2.2]octan]-2-amine] has an EC50 [2] of less than 100 nM.
`c1ccc(-c2ccnc(NC3=NC[C@@]4(CN5CCC4CC5)O3)c2)cc1` [Example 302, (R)—N-(4-Phenylpyridin-2-yl)-4H-1′-azaspiro[oxazole-5,3′-bicyclo[2.2.2]octan]-2-amine] gave an EC50 (FLIPR α7 (EC50, nM), Table Ib) of 9 nM and an EC50 [2] of less than 100 nM.
`Cn1cc(-c2ccnc(NC3=NC[C@@]4(CN5CCC4CC5)O3)c2)cn1` [Example 303, (R)—N-(4-(1-Methyl-1H-pyrazol-4-yl)pyridin-2-yl)-4H-1′-azaspiro[oxazole-5,3′-bicyclo[2.2.2]octan]-2-amine] showed an EC50 [2] of less than 100 nM.
With `c1cc(-c2cscn2)cc(NC2=NC[C@@]3(CN4CCC3CC4)O2)n1` [Example 304, (R)—N-(4-(Thiazol-4-yl)pyridin-2-yl)-4H-1′-azaspiro[oxazole-5,3′-bicyclo[2.2.2]octan]-2-amine] the EC50 [2] was less than 100 nM.
For `O=[N+]([O-])c1ccc(-c2ccnc(NC3=NC[C@@]4(CN5CCC4CC5)O3)c2)cn1` [Example 305, (R)—N-(6-Nitro-3,4′-bipyridin-2′-yl)-4H-1′-azaspiro[oxazole-5,3′-bicyclo[2.2.2]octan]-2-amine], the EC50 [2] was less than 100 nM.
In the case of `Cc1nc(NC2=NC[C@@]3(CN4CCC3CC4)O2)ccc1Cl` [Example 306, (R)—N-(5-Chloro-6-methylpyridin-2-yl)-4H-1′-azaspiro[oxazole-5,3′-bicyclo[2.2.2]octan]-2-amine], the EC50 [2] is reported as less than 100 nM.
Compound `Cc1cc(NC2=NC[C@@]3(CN4CCC3CC4)O2)ncc1F` [Example 307, (R)—N-(5-Fluoro-4-methylpyridin-2-yl)-4H-1′-azaspiro[oxazole-5,3′-bicyclo[2.2.2]octan]-2-amine] has an EC50 [2] of less than 100 nM.
Work on `Cc1nc(NC2=NC[C@@]3(CN4CCC3CC4)O2)c(Cl)cc1Cl` [Example 308, (R)—N-(3,5-Dichloro-6-methylpyridin-2-yl)-4H-1′-azaspiro[oxazole-5,3′-bicyclo[2.2.2]octan]-2-amine] yielded an EC50 (FLIPR α7 (EC50, nM), Table Ib) of 59 nM and an EC50 [2] of less than 100 nM.
In the case of `Cc1cnc(NC2=NC[C@@]3(CN4CCC3CC4)O2)cc1C` [Example 309, (R)—N-(4,5-Dimethylpyridin-2-yl)-4H-1′-azaspiro[oxazole-5,3′-bicyclo[2.2.2]octan]-2-amine], the EC50 [2] is reported as less than 100 nM.
Work on `COc1ccc(NC2=NC[C@@]3(CN4CCC3CC4)O2)nc1` [Example 310, (R)—N-(5-Methoxypyridin-2-yl)-4H-1′-azaspiro[oxazole-5,3′-bicyclo[2.2.2]octan]-2-amine] yielded an EC50 [2] of less than 100 nM.
`Clc1c(NC2=NC[C@@]3(CN4CCC3CC4)O2)ncc2ccccc12` [Example 311, (R)—N-(4-Chloroisoquinolin-3-yl)-4H-1′-azaspiro[oxazole-5,3′-bicyclo[2.2.2]octan]-2-amine] gave an EC50 [2] of less than 100 nM.
`Fc1c(Cl)ccc2cc(NC3=NC[C@@]4(CN5CCC4CC5)O3)ncc12` [Example 312, (R)—N-(7-Chloro-8-fluoroisoquinolin-3-yl)-4H-1′-azaspiro[oxazole-5,3′-bicyclo[2.2.2]octan]-2-amine] was tested, and the EC50 [2] was less than 100 nM.
In the case of `Cc1nc(NC2=NC[C@@]3(CN4CCC3CC4)O2)cc2ccccc12` [Example 313, (R)—N-(1-Methylisoquinolin-3-yl)-4H-1′-azaspiro[oxazole-5,3′-bicyclo[2.2.2]octan]-2-amine], the EC50 [2] is reported as less than 100 nM.
In the case of `Fc1ccc(-c2cc(NC3=NC[C@@]4(CN5CCC4CC5)O3)ncn2)cc1` [Example 314, (R)—N-(6-(4-Fluorophenyl)pyrimidin-4-yl)-4H-1′-azaspiro[oxazole-5,3′-bicyclo[2.2.2]octan]-2-amine], the EC50 [2] is reported as less than 100 nM.
`Fc1cccc(-c2cc(NC3=NC[C@@]4(CN5CCC4CC5)O3)ncn2)c1` [Example 315, (R)—N-(6-(3-Fluorophenyl)pyrimidin-4-yl)-4H-1′-azaspiro[oxazole-5,3′-bicyclo[2.2.2]octan]-2-amine] was tested, and the EC50 [2] was less than 100 nM.
For `Fc1cnc(NC2=NC[C@@]3(CN4CCC3CC4)O2)nc1` [Example 316, (R)—N-(5-Fluoropyrimidin-2-yl)-4H-1′-azaspiro[oxazole-5,3′-bicyclo[2.2.2]octan]-2-amine], the EC50 [2] was less than 100 nM.
With `COc1cnc(NC2=NC[C@@]3(CN4CCC3CC4)O2)nc1Cl` [Example 317, (R)—N-(4-Chloro-5-methoxypyrimidin-2-yl)-4H-1′-azaspiro[oxazole-5,3′-bicyclo[2.2.2]octan]-2-amine] the EC50 (FLIPR α7 (EC50, nM), Table Ib) was 660 nM and the EC50 [2] was 100 to 1000 nM.
Work on `Fc1cc(F)c2cnc(NC3=NC[C@@]4(CN5CCC4CC5)O3)cc2c1` [Example 318, (R)—N-(6,8-Difluoroisoquinolin-3-yl)-4H-1′-azaspiro[oxazole-5,3′-bicyclo[2.2.2]octan]-2-amine] yielded an EC50 [2] of less than 100 nM.
